In ChEMBL document CHEMBL2029284, “Synthesis and biological evaluation of ticagrelor derivatives as novel antiplatelet agents” (2012):
Active and inactive are the calls of the source. No cut-off for these calls is given here.

Tested on: Rattus norvegicus
Assay: Antiplatelet activity in Sprague-Dawley rat assessed as ex-vivo inhibition of ADP-induced platelet aggregation at 5 mg/kg, po at 0.5 hrs by Born's method relative to vehicle-treated control
Format: functional

Structure (SMILES) | inhibition | inhibition in vivo at 5 mg/kg [%]
CCCSc1nc(N[C@@H]2C[C@H]2c2ccc(F)c(F)c2)c2nnn([C@@H]3C[C@H](OCCOC(=O)CCC)[C@@H](O)[C@H]3O)c2n1 | inactive | 
CCCSc1nc(N[C@@H]2C[C@H]2c2ccc(F)c(F)c2)c2nnn([C@@H]3C[C@H](OC(=O)C(C)(C)C)[C@@H](O)[C@H]3O)c2n1 | inactive | 
CCCSc1nc(N[C@@H]2C[C@H]2c2ccc(F)c(F)c2)c2nnn([C@@H]3C[C@H](OCCOC(=O)c4ccccc4)[C@@H](O)[C@H]3O)c2n1 | inactive | 
CCCSc1nc(N[C@@H]2C[C@H]2c2ccc(F)c(F)c2)c2nnn([C@@H]3C[C@H](OC(=O)CCC)[C@@H](O)[C@H]3O)c2n1 |  | 28.5
CCCSc1nc(N[C@@H]2C[C@H]2c2ccc(F)c(F)c2)c2nnn([C@@H]3C[C@H](O)[C@@H](O)[C@H]3O)c2n1 |  | 45.7
CCCSc1nc(N[C@@H]2C[C@H]2c2ccc(F)c(F)c2)c2nnn([C@@H]3C[C@H](OCCOC(=O)C(C)(C)C)[C@@H](O)[C@H]3O)c2n1 |  | 46.1
CCCSc1nc(N[C@@H]2C[C@H]2c2ccc(F)c(F)c2)c2nnn([C@@H]3C[C@H](OC(=O)c4ccccc4)[C@@H](O)[C@H]3O)c2n1 |  | 20.1
CCCSc1nc(N[C@@H]2C[C@H]2c2ccc(F)c(F)c2)c2nnn([C@@H]3C[C@H](OC(=O)CC)[C@@H](O)[C@H]3O)c2n1 |  | 44.5
CCCSc1nc(N[C@@H]2C[C@H]2c2ccc(F)c(F)c2)c2nnn([C@@H]3C[C@H](OCCO)[C@@H](O)[C@H]3O)c2n1 [TICAGRELOR] |  | 66.3
CCCSc1nc(N[C@@H]2C[C@H]2c2ccc(F)c(F)c2)c2nnn([C@@H]3C[C@H](OC(=O)OCC(C)C)[C@@H](O)[C@H]3O)c2n1 |  | 13.2
CCCSc1nc(N[C@@H]2C[C@H]2c2ccc(F)c(F)c2)c2nnn([C@@H]3C[C@H](OCCOC(=O)c4cccnc4)[C@@H](O)[C@H]3O)c2n1 | inactive | 
CCCSc1nc(N[C@@H]2C[C@H]2c2ccc(F)c(F)c2)c2nnn([C@@H]3C[C@H](OCCOC(=O)OCC)[C@@H](O)[C@H]3O)c2n1 |  | 47.7
CCCSc1nc(N[C@@H]2C[C@H]2c2ccc(F)c(F)c2)c2nnn([C@@H]3C[C@H](OC(=O)OCC)[C@@H](O)[C@H]3O)c2n1 |  | 42.5
